Results as given in the NIST ThermoML archive (doi:10.1016/j.jct.2016.10.009).

Experiment: xn = mol fraction of the nth substance listed
Details: Liquid, Vibrating tube method

CC(C)OC(C)C [diisopropyl ether] + CCC(C)O
mass density [kg/m3]
Details | x2 = 0 | x2 = 0.2036 | x2 = 0.3227 | x2 = 0.4464 | x2 = 0.4973 | x2 = 0.6595 | x2 = 0.8482
373.24 K, 20000 kPa | – | – | 693 | 701.7 | 705.7 | 719.1 | 736.5
373.24 K, 25000 kPa | 680.8 | 692.1 | 699.7 | 708.2 | 712 | 725.1 | 741.9
373.24 K, 30000 kPa | 687.6 | 698.6 | 706 | 714.3 | 718 | 730.6 | 747.1
373.24 K, 35000 kPa | 693.8 | 704.4 | 711.7 | 719.8 | 723.4 | 735.7 | 751.9
373.24 K, 40000 kPa | 699.6 | 710 | 717.1 | 725 | 728.5 | 740.7 | 756.3
373.24 K, 45000 kPa | 705 | 715.3 | 722.2 | 730 | 733.5 | 745.3 | 760.7
373.24 K, 50000 kPa | 710.1 | 720.1 | 726.9 | 734.6 | 738 | 749.6 | 764.7
373.24 K, 55000 kPa | 714.9 | 724.9 | 731.5 | 739 | 742.4 | 753.8 | 768.7
373.24 K, 60000 kPa | 719.5 | 729.2 | 735.8 | 743.2 | 746.5 | 757.8 | 772.4
373.24 K, 65000 kPa | 723.9 | 733.4 | 740 | 747.3 | 750.6 | 761.6 | 776
373.24 K, 70000 kPa | 728.1 | 737.4 | 743.9 | 751.1 | 754.3 | 765.2 | 779.5
373.24 K, 80000 kPa | 735.9 | 745.2 | 751.5 | 758.4 | 761.6 | 772.3 | 786.1
373.24 K, 90000 kPa | 743.2 | 752.3 | 758.4 | 765.2 | 768.4 | 778.8 | 792.3
373.24 K, 100000 kPa | 750 | 758.8 | 764.9 | 771.5 | 774.6 | 784.8 | 798.2
373.24 K, 110000 kPa | 756.3 | 765.1 | 771 | 777.6 | 780.6 | 790.6 | 803.6
373.24 K, 120000 kPa | 762.3 | 770.9 | 776.8 | 783.2 | 786.1 | 796 | 808.8
373.24 K, 130000 kPa | 768 | 776.5 | 782.3 | 788.7 | 791.5 | 801.3 | 813.9
373.24 K, 140000 kPa | 773.3 | 781.8 | 787.4 | 793.7 | 796.6 | 806.1 | 818.6
393.28 K, 1000 kPa | 609.5 | 623.6 | 633.2 | 644 | 648.8 | 665 | 686.4
393.28 K, 5000 kPa | 622.1 | 635 | 643.9 | 654 | 658.4 | 673.7 | 693.9
393.28 K, 10000 kPa | 635 | 647 | 655.3 | 664.6 | 668.8 | 683.2 | 702.2
393.28 K, 15000 kPa | 645.8 | 657.1 | 665 | 673.9 | 677.9 | 691.5 | 709.7
393.28 K, 20000 kPa | 655.2 | 666 | 673.6 | 682 | 685.8 | 698.9 | 716.3
393.28 K, 25000 kPa | 663.5 | 674 | 681.2 | 689.5 | 693.1 | 705.7 | 722.6
393.28 K, 30000 kPa | 671.1 | 681.1 | 688.2 | 696.2 | 699.8 | 712 | 728.4
393.28 K, 35000 kPa | 677.9 | 687.8 | 694.7 | 702.5 | 705.9 | 717.8 | 733.8
393.28 K, 40000 kPa | 684.3 | 694 | 700.7 | 708.3 | 711.6 | 723.2 | 738.8
393.28 K, 45000 kPa | 690.2 | 699.6 | 706.2 | 713.7 | 717 | 728.3 | 743.6
393.28 K, 50000 kPa | 695.8 | 705.1 | 711.5 | 718.8 | 722 | 733.1 | 748.1
393.28 K, 55000 kPa | 701.1 | 710.3 | 716.6 | 723.7 | 726.9 | 737.8 | 752.5
393.28 K, 60000 kPa | 705.9 | 714.9 | 721.1 | 728.2 | 731.3 | 742.1 | 756.5
393.28 K, 65000 kPa | 710.6 | 719.4 | 725.7 | 732.5 | 735.6 | 746.3 | 760.4
393.28 K, 70000 kPa | 715.2 | 723.9 | 729.9 | 736.8 | 739.9 | 750.3 | 764.3
393.28 K, 80000 kPa | 723.5 | 732 | 738 | 744.7 | 747.6 | 757.7 | 771.4
393.28 K, 90000 kPa | 731.3 | 739.7 | 745.5 | 752 | 754.9 | 764.8 | 778.1
393.28 K, 100000 kPa | 738.4 | 746.7 | 752.4 | 758.7 | 761.6 | 771.3 | 784.3
393.28 K, 110000 kPa | 745.3 | 753.3 | 758.9 | 765.2 | 768 | 777.5 | 790.3
393.28 K, 120000 kPa | 751.4 | 759.4 | 764.9 | 771.1 | 773.8 | 783.2 | 795.8
393.28 K, 130000 kPa | 757.4 | 765.3 | 770.8 | 776.8 | 779.6 | 788.8 | 801.1
393.28 K, 140000 kPa | 763.1 | 770.8 | 776.3 | 782.3 | 784.9 | 794.1 | 806.2
